In patent publication US20230399320A1, “NOVEL CAPSID ASSEMBLY INHIBITOR” (Pelemed Co., Ltd., priority 2020, published 2023):
Read-outs that look alike come from different tables or passages of the source.

Key:
[1] = target: T1, Cp149 (truncated form of a HBV core protein) (Hepatitis B virus genotype D subtype ayw, UniProt P03146); test: Protein based assay: immunoblot analysis of in vitro HBV capsid assembly; format: biochemical; conditions: read-out: Protein based assay (% inhibition, 10 μM)
T1 construct: Cp149 (amino acids 1-149) is a truncated form of a HBV core protein; histidine tag (cleaved yes); made in house; host or cells: Escherichia coli BL21(DE3)
Experimental: Cp149 (amino acids 1-149) is a truncated form of a HBV core protein. It was expressed in Escherichia coli, and the expressed protein was purified. The recombinant Cp149 was expressed in E. coli BL21(DE3) cells cultured in LB medium at 37° C. When the culture reached an OD600 of 0.7 to 0.8, expression of the culture was induced with 0.5 mM isopropyl-β-d-thiogalactopyranoside and the culture was cooled to 16° C. After 16 hours, the cells were harvested, flash-frozen in liquid nitrogen, and stored at −80° C. To purify Cp149, thawed cells were resuspended in lysis buffer (20 mM Tris-HCl pH 9.0, 200 mM NaCl, 10 mM imidazole, 10 μg per mL DNaseI, 1 mM phenylmethylsulfonyl fluoride), and treated with ultrasonic waves. The supernatant was loaded onto Ni-NTA affinity resin. Proteins were eluted using a 20 mM to 500 mM imidazole gradient dissolved in lysis buffer. After removing the histidine tag with thrombin, the protein was further purified by HiTrap Q anion exchange chromatography (17115401, GE Healthcare).
To determine the effect on in vitro Cp149 assembly, compounds of the present invention were added to the Cp149-containing suspension. The final concentration of Cp149 was 1 mg per mL, and the compounds of the present invention were added at concentrations of 0.1 to 10 μM. The suspension was mixed with reaction buffer (150 mM HEPES, pH 7.5, 15 mM NaCl) added in a 2:1 ratio. In vitro assembly was performed at 37° C. for 1 hour, and HBV capsid was detected by immunoblot analysis using an anti-HBV core antibody (1:2000, B0586, Dako).

HBV DNA = test: Quantitative PCR for measuring HBV DNA in cells (HBV DNA quantification); format: cell-based
Experimental: After treating cells with the indicated compounds, HBV DNA secreted into the medium and intracellular HBV DNA were extracted, purified, and quantified by quantitative PCR. To isolate the secreted HBV DNA, the culture medium was recovered and centrifuged at 15,000×g to remove debris. The medium was diluted 1:1 with phosphate-buffered saline (PBS), and 1 M NaOH solution was added to a final concentration of 0.1 M. The mixture was incubated at 37° C. for 1 hour. The protein was denatured by adding 2M Tris-HCl solution (pH 7.5) to a final concentration of 0.2 M and incubating at 98° C. for 5 minutes. The protein precipitation was removed by centrifugation at 15,000×g, and the supernatant was subjected to PCR with HBV DNA primer and probe sets:
Forward: 5′-[…]-3′, Reverse: 5′-[…]-3′, Probe: 5′-[…]-3′.

[2] = Hepatitis B virus, read-out: HBV DNA quantification (IC50 μM)
[3] = Hepatitis B virus; read-out: HBV DNA quantification (IC50 μM)

T1 sequence (P03146 1-149): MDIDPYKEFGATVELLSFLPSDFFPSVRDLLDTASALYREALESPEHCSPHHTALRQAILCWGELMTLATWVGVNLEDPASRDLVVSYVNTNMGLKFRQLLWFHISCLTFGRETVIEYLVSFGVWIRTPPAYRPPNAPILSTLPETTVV

Structure (SMILES) | inhibition at 10 µM [1] | IC50 (HBV DNA; [2]) | IC50 (HBV DNA; [3])
COc1ncccc1C(=O)NCCNc1cc(Nc2ccc(F)c(F)c2)nc(S(C)(=O)=O)n1 [Compound 9g, N-(2-(6-(3,4-difluorophenylamino)-2-(methylsulfonyl)pyrimidin-4-ylamino)ethyl)-2-methoxynicotinamide] | 59% | > 10 µM | –
COc1ncccc1C(=O)NCCNc1cc(Nc2ccc(F)cc2Cl)nc([S+](C)[O-])n1 (stereo not drawn) [Compound 9h, N-(2-(6-(2-chloro-4-fluorophenylamino)-2-(methylsulfinyl)pyrimidin-4-ylamino)ethyl)-2-methoxynicotinamide] | 43% | > 10 µM | –
COc1ncccc1C(=O)NCCNc1cc(Nc2ccc(F)cc2Cl)nc(S(C)(=O)=O)n1 [Compound 9i, N-(2-(6-(2-chloro-4-fluorophenylamino)-2-(methylsulfonyl)pyrimidin-4-ylamino)ethyl)-2-methoxynicotinamide] | 43% | > 10 µM | –
CSc1nc(Cl)cc(N(Cc2ccc(F)cc2)c2ccc(N3CCOCC3)cc2)n1 [Compound 10a, 6-chloro-N-(4-fluorobenzyl)-2-(methylthio)-N-(4-morpholinophenyl)pyrimidin-4-amine] | 58% | > 10 µM | –
CSc1nc(Cl)cc(N(CCc2ccc(F)cc2)c2ccc(N3CCOCC3)cc2)n1 [Compound 10b, 6-chloro-N-(4-fluorophenethyl)-2-(methylthio)-N-(4-morpholinophenyl)pyrimidin-4-amine] | 76% | > 10 µM | –
CSc1nc(N)cc(N(Cc2ccc(F)cc2)c2ccc(N3CCOCC3)cc2)n1 [Compound 11a, N^4-(4-fluorobenzyl)-2-(methylthio)-N^4-(4-morpholinophenyl)pyrimidine-4,6-diamine] | 71% | – | > 10 µM
CSc1nc(N)cc(N(CCc2ccc(F)cc2)c2ccc(N3CCOCC3)cc2)n1 [Compound 11b, N^4-(4-fluorophenethyl)-2-(methylthio)-N^4-(4-morpholinophenyl)pyrimidine-4,6-diamine] | 74% | – | > 10 µM
COc1ncccc1C(=O)N1CCN(c2cc(Nc3ccc(N4CCOCC4)cc3)nc(SC)n2)CC1 [Compound 13, (2-methoxypyridin-3-yl)(4-(2-(methylthio)-6-(4-morpholinophenylamino)pyrimidin-4-yl)piperazin-1-yl)methanone] | 31% | – | > 10 µM
COc1ncccc1C(=O)N1CCN(c2cc(Nc3ccc(N4CCOCC4)cc3)nc([S+](C)[O-])n2)CC1 (stereo not drawn) [Compound 14, (2-methoxypyridin-3-yl)(4-(2-(methylsulfinyl)-6-(4-morpholinophenylamino)pyrimidin-4-yl)piperazin-1-yl)methanone] | 33% | – | > 10 µM
CS(=O)(=O)c1nc(Cl)cc(Nc2ccc(F)cc2F)n1 [Compound 16a, 6-chloro-N-(2,4-difluorophenyl)-2-(methylsulfonyl)pyrimidin-4-amine] | 85% | > 10 µM | –
CS(=O)(=O)c1nc(Cl)cc(Nc2cc(F)c(F)c(F)c2)n1 [Compound 16b, 6-chloro-2-(methylsulfonyl)-N-(3,4,5-trifluorophenyl)pyrimidin-4-amine] | 82% | 0.473 µM | –
CS(=O)(=O)c1nc(Nc2ccc(F)cc2)cc(Nc2ccc(F)cc2)n1 [Compound 18a, N^4,N^6-bis(4-fluorophenyl)-2-(methylsulfonyl)pyrimidine-4,6-diamine] | 49% | – | 6.4 µM
CS(=O)(=O)c1nc(Nc2cc(F)c(F)c(F)c2)cc(Nc2cc(F)c(F)c(F)c2)n1 [Compound 18b, 2-(methylsulfonyl)-N^4,N^6-bis(3,4,5-trifluorophenyl)pyrimidine-4,6-diamine] | 69% | – | 1.02 µM
CS(=O)(=O)c1nc(Nc2ccc(F)c(Cl)c2)cc(Nc2ccc(F)c(Cl)c2)n1 [Compound 18c, N^4,N^6-bis(3-chloro-4-fluorophenyl)-2-(methylsulfonyl)pyrimidine-4,6-diamine] | 57% | 0.587 µM | –
CC(C)(C)OC(=O)N1CCN(c2cc(Nc3ccc(F)cc3)nc(S(C)(=O)=O)n2)CC1 [Compound 22a, tert-butyl 4-(6-(4-fluorophenylamino)-2-(methylsulfonyl)pyrimidin-4-yl)piperazine-1-carboxylate] | 68% | 0.831 µM | –
CC(C)(C)OC(=O)N1CCN(c2cc(NCc3ccc(F)cc3)nc(S(C)(=O)=O)n2)CC1 [Compound 22b, tert-butyl 4-(6-(4-fluorobenzylamino)-2-(methylsulfonyl)pyrimidin-4-yl)piperazine-1-carboxylate] | 40% | 0.549 µM | –
CC(C)(C)OC(=O)N1CCN(c2cc(Nc3ccc(Cl)cc3)nc(S(C)(=O)=O)n2)CC1 [Compound 22c, tert-butyl 4-(6-(4-chlorophenylamino)-2-(methylsulfonyl)pyrimidin-4-yl)piperazine-1-carboxylate] | 68% | 0.577 µM | –
CC(C)(C)OC(=O)N1CCN(c2cc(NCc3ccc(Cl)cc3)nc(S(C)(=O)=O)n2)CC1 [Compound 22d, tert-butyl 4-(6-(4-chlorobenzylamino)-2-(methylsulfonyl)pyrimidin-4-yl)piperazine-1-carboxylate] | 55% | 5.08 µM | –
CC(C)(C)OC(=O)N1CCN(c2cc(Nc3ccc(Br)cc3)nc(S(C)(=O)=O)n2)CC1 [Compound 22e, tert-butyl 4-(6-(4-bromophenylamino)-2-(methylsulfonyl)pyrimidin-4-yl)piperazine-1-carboxylate] | 67% | 0.652 µM | –
CC(C)(C)OC(=O)N1CCN(c2cc(Nc3ccc(I)cc3)nc(S(C)(=O)=O)n2)CC1 [Compound 22f, tert-butyl 4-(6-(4-iodophenylamino)-2-(methylsulfonyl)pyrimidin-4-yl)piperazine-1-carboxylate] | 66% | 1.1 µM | –
CC(C)(C)OC(=O)N1CCN(c2cc(Nc3ccc(F)c(F)c3)nc(S(C)(=O)=O)n2)CC1 [Compound 22g, tert-butyl 4-(6-(3,4-difluorophenylamino)-2-(methylsulfonyl)pyrimidin-4-yl)piperazine-1-carboxylate] | 84% | 0.658 µM | –
CC(C)(C)OC(=O)N1CCN(c2cc(Nc3cc(F)c(F)c(F)c3)nc(S(C)(=O)=O)n2)CC1 [Compound 22h, tert-butyl 4-(2-(methylsulfonyl)-6-(3,4,5-trifluorophenylamino)pyrimidin-4-yl)piperazine-1-carboxylate] | 96% | 0.577 µM | –
CC(C)(C)OC(=O)N1CCN(c2cc(NCc3cc(F)c(F)c(F)c3)nc(S(C)(=O)=O)n2)CC1 [Compound 22l, tert-butyl 4-(2-(methylsulfonyl)-6-(3,4,5-trifluorobenzylamino)pyrimidin-4-yl)piperazine-1-carboxylate] | 89% | 1.02 µM | –
CS(=O)(=O)c1nc(Nc2ccc(F)cc2)cc(N2CCNCC2)n1 [Compound 26a, N-(4-fluorophenyl)-2-(methylsulfonyl)-6-(piperazin-1-yl)pyrimidin-4-amine] | 86% | – | 0.962 µM
